Experimental data as given in patent publication US20170072012A1, “USE OF GSMTX4 TO REDUCE ISCHEMIA REPERFUSION INJURY” (priority 2014, published 2017).
Read-outs that look alike come from different tables or passages of the source. Where a SMILES comes first, the peptide text is derived from it. Bridges are numbered along the chain shown (N, C = ends). [ ]: non-standard residue; d: D form.

How the values were obtained:
[1] = test system: ischemic reperfusion injury in mouse heart; type: in vivo, C57B1/6J mice; conditions: for myocardial infarction (infarct area / AAR): 4 h reperfusion, vehicle 16.5±1.2%
Protocol: Acute GsMTx4-D treatment: All animal protocols in this study were approved by the Institutional Animal Care and Use Committee of the University at Buffalo-State University of New York. C57B1/6J mice were anesthetized with 80 mg/kg of sodium pentobarbital (Sigma, St. Louis, Mo.) via intraperitoneal injection (IP), intubated and ventilated with a respirator (Harvard apparatus, Holliston, Mass., USA) 17. Upon absence of a pedal reflex, surgery was performed under a stereomicroscope. Core body temperature was maintained at 37° C. with a heating pad. After a left lateral thoracotomy, the left anterior descending coronary artery (LAD) was occluded just underneath the left atrium for 20 min with an 8-0 nylon suture. […] A small piece of gauze was used to prevent arterial injury. After 20 min the ligature was removed and the tissue was reperfused for up to 4 h before euthanizing. Three different doses of GsMTx4-D (0.1, 1, 10 mg/kg), verapamil (0.4 mg/kg) or vehicle (saline 50 μL) were administered via tail vein injection 5 min before reperfusion (during induced ischemia). ECGs confirmed the hallmark ischemic ST segment elevation during coronary occlusion (AD Instruments, Colorado Springs, CO, USA). Each group included 5 independent experiments. At the conclusion of the study, mice were euthanized by IP injection of 270 mg/kg pentobarbital. GsMTx4-D pretreatment: To evaluate the effect of GsMTx4-D pretreatment, GsMTx4-D (50 mg/kg) or vehicle (saline 50 μL) were administered via IP injection once daily for 2 days prior to surgery. Ischemia was then elicited with the same 20 min coronary occlusion followed by 24 h reperfusion. Following reperfusion, the chest was closed in layers. A drop of lidocaine was put on the suture site and the mouse was slowly weaned off the ventilator when they resumed spontaneous breathing. The mouse was returned to its cage and kept warm and medicated for pain (buprenorphine). Each group included 5 independent experiments.
To measure infarct size, hearts were harvested and excised for dual staining at the conclusion of reperfusion. The non-necrotic tissue in the ischemic region was stained red with 2,3,5- triphenyltetrazolium (TTC) and non-ischemic regions were stained blue with Evans blue. The hearts were fixed and sectioned into 1 mm slices, photographed with a Lexica MZ95 microscope and analyzed with NIH ImageJ software (http://imagej.nih.gov/ij/) 19. The infarct size was calculated as the ratio of the percentage of myocardial necrosis to the ischemic Area At Risk (AAR).
To test whether GsMTx4-D protected the heart against reperfusion injury, we first tested three different doses of the peptide. The positive control was verapamil, a voltage-gated calcium channel inhibitor with established cardioprotective effects on IRI. C57B1/6 mice were subjected to 20 min occlusion of the LAD followed by 4 hours of reperfusion. Three different concentrations of GsMTx4-D (0.1, 1 and 10 mg/kg), verapamil (0.4 mg/kg), or vehicle (saline) were administered through tail vein injection 5 min before reperfusion. […] At the conclusion of reperfusion, the hearts were stained with TTC and Evans Blue (FIG. 2A). […] The verapamil group also had lower infarction size (14.0±0.4%), but the difference wasn't statistically significant. […] To evaluate whether pretreatment with GsMTx4-D could also protect the heart from I/R injury, GsMTx4-D (50 mg/kg) or vehicle (saline 50 μL) were administered daily via IP injection, for 2 days prior to I/R surgery. As before, ischemia was induced from 20 min LAD occlusion, but reperfusion was allowed to continue for 24 hrs. The chest was closed in layers, and animals were weaned off the ventilator when they resumed spontaneous breathing. […] The ratios of AAR to total myocardial area between the two groups were equal as determined by TTC and Evans Blue staining (FIG. 3A and B). […]

[2] = test system: I/R induced arrhythmias in mouse heart; assay: Heart rhythm analysis (ECG) during reperfusion, I/R induced arrhythmia; type: in vivo, C57B1/6J mice; conditions: for total incidence of arrhythmias (ventricular and supraventricular premature beats): vehicle 14.9±4.5; for mean heart rate during the 15 min of reperfusion: vehicle 162.9±13.2
Protocol: During reperfusion we continuously recorded ECGs, from which mean heart rate, PR, QRS, and QT intervals were derived for each animal. We evaluated the incidence of arrhythmias by counting the incidences of arrhythmias including ventricular and supraventricular premature beats by summing the number of episodes based on limb lead recordings for 15 min after reperfusion. Ventricular premature beats are considered more severe. Each group contained 5 to 7 independent experiments (vehicle n=7, verapamil n=6, GsMTx4-D 0.1mg/kg n=5, 1 mg/kg n=6 and 10 mg/kg n=5).
Heart rate and rhythm were monitored by ECG to confirm the hallmark ischemic ST-segment elevation during coronary occlusion, and the gradually increasing inversion of the T-wave during reperfusion (FIG. 4A). Since generation of arrhythmias is a good indicator of the level of I/R damage, we counted ventricular and supraventricular premature beats occurring within 15 min of reperfusion (FIG. 4B). No ventricular tachycardia was observed during 20 min ischemia and 15 min reperfusion in the mouse heart. […] Considering that ventricular premature beats are indicative of more severe damage, the incidence of this specific arrhythmia was analyzed separately (FIG. 4 D). […] There was no difference in mean heart rate before ischemia (FIG. 4E). […] There was no difference in PR, QRS or QT intervals after treatment in all groups (data not shown).

[3] = Single-dose pharmacokinetic study, plasma and heart concentration by LC/MS/MS; type: in vivo, CD-1 mice; conditions: based on the PK analysis

## CC(C)C[C@H]1NC(=O)[C@H](NC(=O)CN)CSSC[C@H]2NC(=O)[C@H]3CSSC[C@H](C(=O)N[C@H](CC(N)=O)C(=O)N[C@H](Cc4ccccc4)C(=O)N[C@H](CO)C(=O)N[C@H](Cc4ccccc4)C(N)=O)NC(=O)[C@@H](CC(C)C)NC(=O)[C@@H](CCCCN)NC(=O)[C@@H](Cc4ccccc4)NC(=O)[C@@H](CC(C)C)NC(=O)[C@@H](CCCCN)NC(=O)[C@@H](CO)NC(=O)[C@@H](CSSC[C@@H](NC(=O)[C@@H](CCCCN)NC(=O)[C@@H](Cc4c[nH]c5ccccc45)NC(=O)[C@@H](Cc4c[nH]c5ccccc45)NC(=O)[C@@H](Cc4ccccc4)NC(=O)[C@@H](CCC(=O)O)NC1=O)C(=O)N[C@H](CC(N)=O)C(=O)N1CCC[C@@H]1C(=O)N[C@H](CC(N)=O)C(=O)N[C@H](CC(=O)O)C(=O)N[C@H](CC(=O)O)C(=O)N[C@H](CCCCN)C(=O)N3)NC(=O)[C@@H](CCCCN)NC(=O)[C@@H](CC(C)C)NC(=O)[C@@H](CCCCN)NC(=O)[C@H]1CCCN1C(=O)[C@@H](CCCNC(=N)N)NC2=O [GsMTx4-D] (H-G[dC][dL][dE][dF][dW][dW][dK][dC][dN][dP][dN][dD][dD][dK][dC][dC][dR][dP][dK][dL][dK][dC][dS][dK][dL][dF][dK][dL][dC][dN][dF][dS][dF]-NH2; disulfide 2-17, 9-23, 16-30 (inferred); N-terminus and C-terminus assumed)
[1]; 1.0 mg/kg tail vein 5 min before reperfusion
  myocardial infarction (infarct area / AAR): 9.9±1.3%
[1]; 10 mg/kg tail vein 5 min before reperfusion
  myocardial infarction (infarct area / AAR): 12.4±0.5%
[1]; 50 mg/kg IP daily for 2 days
  side-effects from pretreatment: did not detect any side-effects
[1]; 50 mg/kg IP daily for 2 days prior to surgery, 24 h reperfusion, vehicle 16.8±1.1%
  infarction size (infarct area / AAR): 10.5±0.7%
[1]; 0.1, 1 and 10 mg/kg tail vein injection
  death or morbidity in acute I/R treatment: no death or morbidity observed
[1]; acute IV and IP pretreatment I/R studies
  toxicity in the heart during these studies: no overt signs of toxicity
[2]; 0.1 mg/kg IV 5 min before reperfusion, not significantly different
  total incidence of arrhythmias (ventricular and supraventricular premature beats): 10.4±6 incidence/15 min reperfusion
[2]; 1 mg/kg IV 5 min before reperfusion
  total incidence of arrhythmias (ventricular and supraventricular premature beats): 2.3±0.7 incidence/15 min reperfusion
[2]; 1 mg/kg IV
  mean heart rate during the 15 min of reperfusion: 255.7±33.4
[2]; 1 mg/kg IV, within 15 min of reperfusion, vehicle 5.7±1.8
  ventricular premature beats: 1.3±0.4
[2]; 10 mg/kg IV 5 min before reperfusion
  total incidence of arrhythmias (ventricular and supraventricular premature beats): 2.2±1.0 incidence/15 min reperfusion
[2]; 10 mg/kg IV
  mean heart rate during the 15 min of reperfusion: 286.1±25.0
[3]; after the 1 mg/kg IV injection during ischemia
  predicted concentration in the heart at the time of reperfusion: < 0.5 µM
[3]; after two IP pretreatments (50 mg/kg)
  predicted concentration in the heart at the time of reperfusion: 1 to 2 µM
